Measured values from US20210261539A1, “COMPOUND HAVING BET INHIBITORY ACTIVITY AND PREPARATION METHOD AND USE THEREFOR” (Shanghai Haihe Pharmaceutical Co., Ltd., priority 2018, published 2021).

Molecular target: T1, BRD4 BD1 (Homo sapiens, UniProt O60885)
T1 construct: Protein BRD4 BD1 used in the assay was purchased from Active Motif (cat. 31380); purchased Active Motif 31380
Assay: HTRF in vitro enzyme activity assay, inhibition of BRD4 BD1 binding to acetylated H4 peptide
Conditions: IC50 values of the compounds against BRD4 BD1 binding; class symbols A/B/C
Method in brief: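 Recombinant human BRD4 BD1 (30 nM final) incubated with compound and biotinylated tetra-acetylated H4(1-21) peptide, 30 min at 37 °C; 5-point 1:5 dilution series, 0.1% DMSO final. HTRF read after 3 h at RT with SA-XL665 and Eu(K)-labelled antibody; IC50 derived.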
In the case of `CC1C(=O)N(C)c2ccc(N3C(=O)CCC3c3ccc(F)cc3)nc2N1C1CC1` (single isomer, unassigned) [Example A22-P1, 4-cyclopropyl-6-(2-(4-fluorophenyl)-5-oxopyrrolidin-1-yl)-1,3-dimethyl-3,4-dihydropyrido[2,3-b]pyrazin-2(1H)-one], the IC50 is reported as 10 to 100 nM. For `C[C@H]1Oc2cc(N3C(=O)c4ccccc4C3c3cccnc3)ncc2N(C)C1=O` (single isomer, unassigned) [Example A123-P2], the IC50 was 100 to 1000 nM. With `CC1C(=O)N(C)c2ccc(N3C(=O)CCC3c3ccccn3)nc2N1C1CC1` (single isomer, unassigned) [Example A6-P1, 4-cyclopropyl-1,3-dimethyl-6-(2-oxo-5-(pyridin-2-yl)pyrrolidin-1-yl)-3,4-dihydropyrido[2,3-b]pyrazin-2(1H)-one] the IC50 was ≤ 10 nM. For `CC1C(=O)N(C)c2ccc(N3C(=O)c4ccccc4C3c3ccc(F)cn3)nc2N1C1CC1` (single isomer, unassigned) [Example A68-P3, 4-cyclopropyl-6-(1-(5-fluoropyridin-2-yl)-3-oxoisoindolin-2-yl)-1,3-dimethyl-3,4-dihydropyrido[2,3-b]pyrazin-2(1H)-one], the IC50 was ≤ 10 nM. For `CC1C(=O)N(C)c2ccc(N3C(=O)c4cccc(F)c4C3c3cccnc3)nc2N1C1CC1` (single isomer, unassigned) [Example A75-P3, 4-cyclopropyl-6-(7-fluoro-3-oxo-1-(pyridin-3-yl)isoindolin-2-yl)-1,3-dimethyl-3,4-dihydropyrido[2,3-b]pyrazin-2(1H)-one], the IC50 was ≤ 10 nM. In the case of `CC1C(=O)N(C)c2ccc(N3C(=O)c4c(C(=O)N5CCN(C)CC5)cccc4C3c3ccc(F)cc3)nc2N1C1CC1` (single isomer, unassigned) [Example A82-P4], the IC50 is reported as ≤ 10 nM. For `CCSc1cccc2c1C(=O)N(c1ccc3c(n1)N(C1CC1)C(C)C(=O)N3C)C2c1cccnc1` (single isomer, unassigned) [Example A66-P3], the IC50 was ≤ 10 nM. `C[C@H]1Oc2cc(N3C(=O)c4ccccc4C3c3ccc(F)nc3)ncc2N(C)C1=O` (single isomer, unassigned) [Example A125-P1] gave an IC50 of 100 to 1000 nM. Work on `C[C@H]1Oc2cc(N3C(=O)c4cc(F)ccc4C3c3cccnc3)ncc2N(C)C1=O` (stereo partly drawn) [Example A117, (2R)-7-(5-fluoro-3-oxo-1-(pyridin-3-yl)isoindolin-2-yl)-2,4-dimethyl-2H-pyrido[4,3-b][1,4]oxazin-3(4H)-one] yielded an IC50 of 100 to 1000 nM. With `CC[S+]([O-])c1cccc2c1C(=O)N(c1ccc3c(n1)N(C1CC1)C(C)C(=O)N3C)C2c1cccnc1` (centres unmarked) [Example A73, 4-cyclopropyl-6-(4-(ethylsulfinyl)-3-oxo-1-(pyridin-3-yl)isoindolin-2-yl)-1,3-dimethyl-3,4-dihydropyrido[2,3-b]pyrazin-2(1H)-one] the IC50 was ≤ 10 nM. For `CC1C(=O)N(C)c2ccc(N3C(=O)NCC3c3ccccc3)nc2N1C1CC1` (single isomer, unassigned) [Example A18-P4, 4-cyclopropyl-1,3-dimethyl-6-(2-oxo-5-phenylimidazolidin-1-yl)-3,4-dihydropyrido[2,3-b]pyrazin-2(1H)-one], the IC50 was ≤ 10 nM. With `C[C@@H]1C(=O)N(C)c2cnc(N3C(=O)c4c(cccc4C(C)(C)O)C3c3ccc(F)cc3)nc2N1C1CC1` (stereo partly drawn) [Example A94-P4, (7R)-8-cyclopropyl-2-(3-oxo-1-(4-fluorophenyl)-4-(2-hydroxyprop-2-yl)isoindolin-2-yl)-5,7-dimethyl-7,8-dihydropteridin-6(5H)-one] the IC50 was ≤ 10 nM. With `CSc1cccc2c1C(=O)N(c1ccc3c(n1)N(C)[C@H](C)C(=O)N3C)C2c1cccnc1` (mixture of isomers) [Example A61, (3R)-1,3,4-trimethyl-6-(4-(methylthio)-3-oxo-1-(pyridin-3-yl)isoindolin-2-yl)-3,4-dihydropyrido[2,3-b]pyrazin-2(1H)-one] the IC50 was ≤ 10 nM. For `C[C@@H]1C(=O)N(C)c2ccc(N3C(=O)c4c(C(=O)NC5CC5)cccc4C3c3ccccc3)nc2N1C` (stereo partly drawn) [Example A87-P4, N-cyclopropyl-3-oxo-1-phenyl-2-((R)-1,3,4-trimethyl-2-oxo-1,2,3,4-tetrahydropyrido[2,3-b]pyrazin-6-yl)isoindoline-4-carboxamide], the IC50 was ≤ 10 nM. In the case of `CC1C(=O)N(C)c2c(F)cc(N3C(=O)CCC3c3ccc(Cl)cc3)cc2N1C1CC1` (single isomer, unassigned) [Example A15-P1-1, 6-(2-(4-chlorophenyl)-5-oxopyrrolidin-1-yl)-4-cyclopropyl-8-fluoro-1,3-dimethyl-3,4-dihydroquinoxalin-2(1H)-one], the IC50 is reported as ≤ 10 nM. For `CC1C(=O)N(C)c2ccc(N3C(=O)c4ccccc4C3c3ccccn3)nc2N1C1CC1` (single isomer, unassigned) [Example A69-P3, 4-cyclopropyl-1,3-dimethyl-6-(1-oxo-3-(pyridin-2-yl)isoindolin-2-yl)-3,4-dihydropyrido[2,3-b]pyrazin-2(1H)-one], the IC50 was ≤ 10 nM.

Tested on: human NMC-derived xenograft
Assay: not given
Conditions: human NMC-derived xenograft mouse model; cited from earlier work
In the case of `Cc1sc2c(c1C)C(c1ccc(Cl)cc1)=N[C@@H](CC(=O)OC(C)(C)C)c1nnc(C)n1-2` [JQ1], the “tumor squamous differentiation and growth” value is given as “inhibited tumor squamous differentiation and growth and caused regression”.
